Test systems include MDA-N; U-251; DU-145; SN12C; A549; HCC 2998; MDA-MB-231; SNB-75; NCI/ADR-RES; MDA-MB-435; K562; SF-539; KM12; RPMI-8226; OVCAR-8; SK-MEL-28; HCT-116; SF-268; IGROV-1; CCRF-CEM.
What all share (experiment): NCI-60 cell line screen, 48 h

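All cell lines were grown in 96-well plates and treated with compound for 48 hours. Abbreviation: GI50, concentration required for 50% inhibition of growth.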 Calls of active or inactive are those of the source. No stated cut-off is given here; in the data, active = GI50 up to about 1.1 µM and inactive = higher.

Regarding `O=c1c2ccccc2nc(-c2cc3c(cc2Cl)Sc2nccn2S3(=O)=O)n1-c1ccccc1`, the GI50 in the experiment on MDA-N is 15.6 µM (inactive); with U-251 it was 16.8 µM (inactive); with DU-145, 20.8 µM (inactive); in the experiment with SN12C, 45.5 µM (inactive); with A549, > 100 µM (inactive); with HCC 2998 it was 15.1 µM (inactive). Moreover, the GI50 in the experiment with MDA-MB-231 was 18.4 µM (inactive); in the experiment on SNB-75, 21.4 µM (inactive); in the experiment with NCI/ADR-RES, 19.1 µM (inactive); with MDA-MB-435 it was 22.8 µM (inactive); with K562 it was 18.8 µM (inactive); with SF-539 it was 20.4 µM (inactive). Further, the GI50 with KM12 was 11.1 µM (inactive); in the experiment with RPMI-8226 it was 12.9 µM (inactive); in the experiment with OVCAR-8 it was 12.3 µM (inactive); in the experiment with SK-MEL-28, 21.4 µM (inactive); in the experiment with HCT-116, 14.2 µM (inactive); with SF-268 it was 7.1 µM (inactive). For the same compound, in the experiment on IGROV-1, the GI50 is 42.6 µM (inactive).

As to `CCOC(=O)Cn1c(=O)c2nc(SC)sc2n(-c2ccccc2)c1=S`, the GI50 is 40.8 µM (inactive) in the experiment with MDA-N; 13.4 µM (inactive) in the experiment on U-251; > 100 µM (inactive) in the experiment with DU-145; 35.9 µM (inactive) in the experiment on SN12C; 82.2 µM (inactive) with A549; 40 µM (inactive) with HCC 2998. For the same compound, the GI50 in the experiment with MDA-MB-231 is 22.3 µM (inactive); in the experiment on SNB-75, 4.1 µM (inactive); with NCI/ADR-RES, 36.7 µM (inactive); with MDA-MB-435 it was 64.6 µM (inactive); in the experiment on K562, > 100 µM (inactive); with CCRF-CEM, > 100 µM (inactive). Further, the GI50 is 15.6 µM (inactive) in the experiment on SF-539; 25.8 µM (inactive) with KM12; > 100 µM (inactive) in the experiment on RPMI-8226; 43.9 µM (inactive) with OVCAR-8; 96.6 µM (inactive) in the experiment with SK-MEL-28; 27.5 µM (inactive) in the experiment on HCT-116. Also, the GI50 was 32.4 µM (inactive) with SF-268 and 3.05 µM (inactive) in the experiment with IGROV-1.

Consider `O=c1[nH]c(NCc2cccnc2)nc2[nH]cnc12`, for which the GI50 in the experiment with MDA-N, in the experiment with U-251, in the experiment on DU-145, in the experiment with SN12C, with A549 and in the experiment with HCC 2998 was > 100 µM (inactive) each time. The GI50 in the experiment on MDA-MB-231, with SNB-75, in the experiment on NCI/ADR-RES, in the experiment on MDA-MB-435, in the experiment with K562 and with CCRF-CEM was > 100 µM (inactive) each time. For the same compound, the GI50 with SF-539, in the experiment with KM12, in the experiment with RPMI-8226, in the experiment with OVCAR-8, with HCT-116 and in the experiment on SF-268 was > 100 µM (inactive) each time. The GI50 with IGROV-1 is > 100 µM (inactive).

As for `Cc1cc2nc(C=C(C(F)(F)F)C(F)(F)F)sc2cc1C`, the GI50 is 1.44 µM (inactive) with MDA-N; 0.871 µM (active) in the experiment with U-251; 3.37 µM (inactive) in the experiment with DU-145; 0.501 µM (active) with SN12C; 4.02 µM (inactive) in the experiment with A549; 3.18 µM (inactive) in the experiment with HCC 2998. Moreover, the GI50 was 2.82 µM (inactive) in the experiment on MDA-MB-231; 1.16 µM (inactive) in the experiment with SNB-75; 0.55 µM (active) in the experiment with NCI/ADR-RES; 1.21 µM (inactive) in the experiment with MDA-MB-435; 0.0693 µM (active) with K562; 0.0333 µM (active) in the experiment on CCRF-CEM. Further, the GI50 is 1.54 µM (inactive) with SF-539; 1.7 µM (inactive) in the experiment with KM12; 0.055 µM (active) in the experiment on RPMI-8226; 0.908 µM (active) in the experiment with OVCAR-8; 3.01 µM (inactive) with SK-MEL-28; 1.1 µM (active) with HCT-116. Besides, the GI50 in the experiment with SF-268 is 3.05 µM (inactive); in the experiment on IGROV-1, 2.21 µM (inactive).

`CN(C)CCCN1c2ccccc2CCc2cc([N+](=O)[O-])ccc21`: the GI50 was 15 µM (inactive) in the experiment with MDA-N; 17.4 µM (inactive) in the experiment with U-251; 18.2 µM (inactive) in the experiment with DU-145; 16.1 µM (inactive) with SN12C; 19.9 µM (inactive) in the experiment on A549; 12.2 µM (inactive) with HCC 2998. Moreover, the GI50 was 14.9 µM (inactive) in the experiment on MDA-MB-231; 12.9 µM (inactive) in the experiment with SNB-75; 17.2 µM (inactive) in the experiment on NCI/ADR-RES; 15.8 µM (inactive) with MDA-MB-435; 16.9 µM (inactive) in the experiment on K562; 15.1 µM (inactive) with SF-539. Moreover, the GI50 in the experiment on KM12 was 17.5 µM (inactive); with RPMI-8226, 18 µM (inactive); in the experiment on OVCAR-8 it was 15.7 µM (inactive); in the experiment with HCT-116 it was 15.7 µM (inactive); in the experiment on SF-268, 14.7 µM (inactive); with IGROV-1, 15.6 µM (inactive).

As for `CCOP(C)(=O)/C(Cc1ccc(OC)c(OC)c1)=N\O` (centres undefined), the GI50 in the experiment with MDA-N, in the experiment on U-251, with DU-145, with SN12C, in the experiment with A549 and in the experiment on HCC 2998 was > 100 µM (inactive) in each case. Besides, the GI50 with MDA-MB-231, with SNB-75, with NCI/ADR-RES, in the experiment on MDA-MB-435, in the experiment with K562 and in the experiment on CCRF-CEM was > 100 µM (inactive) throughout. Besides, the GI50 in the experiment on SF-539, with KM12, in the experiment on RPMI-8226, in the experiment on OVCAR-8, in the experiment with SK-MEL-28 and in the experiment with HCT-116 was > 100 µM (inactive) throughout. Besides, the GI50 in the experiment with IGROV-1 was > 100 µM (inactive).

Turning to `Cc1ccccc1C(=O)N/N=C/c1ccc(Sc2nccn2C)c([N+](=O)[O-])c1`, the GI50 is 32.7 µM (inactive) with MDA-N; 85.1 µM (inactive) in the experiment on U-251; 88.3 µM (inactive) with DU-145; > 100 µM (inactive) with SN12C; > 100 µM (inactive) with A549; 45.3 µM (inactive) in the experiment with HCC 2998. For the same compound, the GI50 is 72.3 µM (inactive) with MDA-MB-231; 63.2 µM (inactive) in the experiment with SNB-75; > 100 µM (inactive) with NCI/ADR-RES; 25.9 µM (inactive) in the experiment on MDA-MB-435; 42.4 µM (inactive) in the experiment on K562; 36.5 µM (inactive) with CCRF-CEM. Further, the GI50 was > 100 µM (inactive) in the experiment on SF-539; 66.7 µM (inactive) with KM12; 47.9 µM (inactive) in the experiment with RPMI-8226; 72.1 µM (inactive) in the experiment with OVCAR-8; > 100 µM (inactive) in the experiment on SK-MEL-28; 84.3 µM (inactive) in the experiment on HCT-116. Further, the figures for the GI50 in the experiment on SF-268 and with IGROV-1 were > 100 µM (inactive) and 35.6 µM (inactive), respectively.

Turning to `CC1(C)OCC2OC3([C@@H]4OC(C)(C)O[C@H]4CO)OC(C)(C)OC3C2O1` (some centres undefined), the GI50 in the experiment on MDA-N, in the experiment on U-251, in the experiment on DU-145, in the experiment with SN12C, in the experiment with A549 and in the experiment on HCC 2998 was > 100 µM (inactive) in each case. The GI50 in the experiment on MDA-MB-231, in the experiment on SNB-75, in the experiment with NCI/ADR-RES, in the experiment on MDA-MB-435, with K562 and with CCRF-CEM was > 100 µM (inactive) throughout. The GI50 in the experiment on SF-539, with KM12, in the experiment on RPMI-8226, in the experiment with OVCAR-8, in the experiment on SK-MEL-28 and in the experiment with HCT-116 was > 100 µM (inactive) throughout. Further, the GI50 in the experiment with IGROV-1 is > 100 µM (inactive).

On to `C/C=C/[P+](c1ccccc1)(c1ccccc1)c1ccccc1`, for which the GI50 with MDA-N is 0.35 µM (active); in the experiment with U-251, 0.102 µM (active); in the experiment with DU-145, 1.15 µM (inactive); with SN12C, 1.79 µM (inactive); with A549, 0.548 µM (active); in the experiment on HCC 2998, 0.24 µM (active). The GI50 is 2.58 µM (inactive) in the experiment on MDA-MB-231; 3.48 µM (inactive) with SNB-75; > 100 µM (inactive) with NCI/ADR-RES; 0.277 µM (active) in the experiment on MDA-MB-435; 0.0649 µM (active) in the experiment with K562; 0.474 µM (active) in the experiment with CCRF-CEM. Further, the GI50 with SF-539 is 1.48 µM (inactive); in the experiment with KM12, 0.277 µM (active); in the experiment on RPMI-8226, 0.0413 µM (active); in the experiment on OVCAR-8, 0.426 µM (active); in the experiment with SK-MEL-28, 1.29 µM (inactive); with HCT-116 it was 0.433 µM (active). The GI50 was 1.54 µM (inactive) in the experiment on SF-268 and 2.11 µM (inactive) in the experiment on IGROV-1.

`COc1ccc(/C=C2\N/C(=N/N)N=C2Cl)cc1`: the GI50 with MDA-N, in the experiment on U-251, in the experiment on DU-145, with SN12C, with A549 and in the experiment with HCC 2998 was > 100 µM (inactive) each time. Besides, the GI50 in the experiment on MDA-MB-231, with SNB-75, in the experiment with NCI/ADR-RES, in the experiment on MDA-MB-435, in the experiment with K562 and in the experiment on CCRF-CEM was > 100 µM (inactive) each time. The GI50 with SF-539, in the experiment with KM12, in the experiment on RPMI-8226, with OVCAR-8, in the experiment on SK-MEL-28 and in the experiment on HCT-116 was > 100 µM (inactive) in each case. For the same compound, the GI50 in the experiment on SF-268 and in the experiment with IGROV-1 was > 100 µM (inactive) each time.

For the origin of these results see ChEMBL document CHEMBL1201862, “PubChem BioAssay data set” (2004).
